This is an account of results in patent US20130324413A1, “METHOD FOR PROMOTING PLANT GROWTH” (SUMITOMO CHEMICAL COMPANY, LIMITED, priority 2011, published 2013).

What all share (type): in vivo
For assay [1], the system named is corn seeds (cultivar: Kuromochi). Briefly: Test Example 1: corn seed coating, fresh weight of above-ground part after 18 days. Conditions: for Average fresh weight of above-ground part: seed coating, grown 18 days at 27° C., non-treated 4.2 g. Here is the method: A blank slurry solution containing 5% (V/V) color coat red (Becker Underwood, Inc.), 5% (V/V) CF-Clear (Becker Underwood, Inc.) and 0.4% Maxim XL (Syngenta) was prepared. […] In a 50-ml centrifuge tube (manufactured by BD Japan), 0.48 ml of the slurry solution was placed for each 20 g of corn seeds (cultivar: Kuromochi) and stirred until the solution was dried, thereby coating the seeds. As a control, seeds were coated with the blank slurry solution and used as seeds for a non-treated group. Two treated corn seeds were sown in the culture soil (AISAI) in each plastic pot (55 mm in diameter×58 mm in height) and grown for 18 days under the following conditions: temperature, 27° C.; illuminance, about 5,000 lux; day length, 16 hours. The fresh weight of the above-ground part of the plants was measured. The experiment was performed in four replications for each treatment condition and the average weight per individual was calculated.

Assay [2] concerns Arabidopsis thaliana (ecotype Columbia). Briefly: Test Example 7: Arabidopsis seedlings in medium, high-temperature stress, leaf area. The following applies: 30 ppm in medium; high-temperature stress 45° C. 60 minutes; 8 days after; non-treated 3.4 mm^2. The procedure: In a Petri dish, a hydroponic sponge piece (1 cm×1 cm×0.2 cm) was immersed with a half concentration of Murashige-and-Skoog medium (MS culture medium: containing 2.5 mM MES, 1% sucrose and 0.1% Gamborg vitamin solution G1019 (Sigma-Aldrich)). On this sponge piece, 4 to 5 seeds of Arabidopsis thaliana (ecotype Columbia) were aseptically sown. After the low temperature treatment (at 4° C. for 2 to 4 days), the plants were grown for 6 days under the following conditions to obtain Arabidopsis seedlings: temperature, 23° C.; humidity, 45%; illuminance, 3,500 lux; day length, 16 hours. Each 0.5 ml of a half concentration of MS medium was dispensed into a 24-well plate (SUMILON MS-80240; manufactured by Sumitomo Bakelite), onto which […] of a 1,000-fold concentrated DMSO solution of compound (1b) was added to prepare medium containing compound (1b) at a concentration of 30 ppm. After thinning the Arabidopsis seedlings to 2 plants per sponge, the seedlings were transplanted in the compound (1b)-containing medium in each well of the 24-well plate, together with the sponge piece and then grown overnight. […] Each well was photographed with a digital camera and the green area in the photograph was measured using image analysis software Win ROOF (manufactured by MITANI CORPORATION), thereby quantifying the leaf areas of the plants.

The subject of assay [3] is Basil (cultivar: Sweet Basil; Takii). Briefly: Test Example 10: basil seedling spraying, low-temperature stress, fresh weight and damage score. The following applies: for Fresh weight of above-ground part: low-temperature stress 3.0° C., non-treated 0.34 g; for Damage score: score 0 (completely killed) to 100 (survived without any damage), survived leaf area, non-treated 17. Here is the method: Basil seeds (cultivar: Sweet Basil; Takii) were sown in the culture soil (AISAI) in plastic pots (55 mm in diameter×58 mm in height) and grown for 24 days under the following conditions to obtain a basil seedling per pot: temperature, 27° C.; humidity, 50 to 75%; illuminance, about 6,000 lux; day length, 16 hours.
Compound (1b). was dissolved in dimethylsulfoxide (DMSO) to obtain a DMSO solution of compound (lb) at a 1,000-fold concentration relative to the test concentration. This DMSO solution of compound (1b) was 1,000-fold diluted with water. Then Triton X-100 was added as a surfactant to a final concentration of 0.1%. The spray solution thus prepared was applied in a sufficient amount (15 ml per 3 pots) by means of a handspray.
As a control, a spray solution without compound (ib) was prepared and then sprayed to the non-treated group. The plants were further grown for 1 day under the following conditions: temperature, 27° C.; humidity, 50 to 75%; illuminance, about 6,000 lux; day length, 16 hours.
Subsequently, the basil seedlings were placed in a phytotron under the following conditions, to expose the plants to low-temperature stress. • Conditions: “temperature, 3.0° C.; illuminance, 800 lux; • humidity, 50 to 80%”
The plants were further grown for another 2 days under the following conditions: temperature, 27° C.; humidity, 50 to 75%, illuminance, about 6,000 lux; day length, 16 hours.
The percentage of the leaf area of the portions of true leaves of the basil seedlings which survived without being damaged was scored as follows: completely killed with 0% of the survived leaf area to the total leaf area: 0; survived without any damage with 100% of the survived leaf area to the total leaf: 100; and scored from 0 to 100 by increment of 1 by visual observation. The scores of three plants were averaged to determine the damage score. The aerial part of the basil seedlings was removed to measure the fresh weight of the above-ground part. The average weight of three individuals was recorded as the fresh weight of the above-ground part.

For assay [4], the system named is oilseed rape (Brasicca napus). Briefly: Test Example 11: oilseed rape field application, yield of the seeds. Conditions: flowable formulation, 250 g per hectare at day 240 (BBCH 63); evaluated day 334; non-treated 4.25 tons/hectare. The text has this: Seeds of oilseed rape (Brasicca napus) were sown at 5.5 kg seeds per hectare and grown. At day 240 after the sowing, at growth stage 63, according to the Biologische Bundesanstalt, Bundessortenamt and CHemical industry (BBCH) scale, the flowable formulation prepared as described in Formulation Example 2 containing compound (1b) was applied in an amount of 250 g per hectare. A group for the treatment measured 2 m×12 m. This group was the present compound-treated group. A group treated with the formulation without compound (1b) was used as the non-treated group, in which plants were cultivated in the same manner as in the treated group.
At day 334 after the sowing, the yield of the seeds was evaluated. As a result, the yield calculated presuming 9% seed water content was 4.55 tons/hectare in the present compound-treated group, while it was 4.25 tons/hectare in the non-treated group. During the testing, no diseases were observed that affected the yield either in the present compound-treated or non-treated group.

`CNC(=O)C(OC)c1ccccc1COc1cc(C)ccc1C` (racemic) [Compound (1b), N-methyl-2-[2-(2,5-dimethylphenoxy)methyl]phenyl-2-methoxyacetamide]: the “Relative value (fresh weight of above-ground part)” value in assay [1] (12.5 g/ of seeds, non-treated = 100) is listed as 105%. Also, in assay [1] (amount ranging from 10 g to 50 g per 100 kg of seeds), the “fresh weight of the above-ground part as compared with the control group” value is on record as “increased”. In addition, the “Average fresh weight of above-ground part” value worked out at 4.4 g in assay [1] (amount of compound 10 g/ of seeds), 4.4 g in assay [1] (amount of compound 12.5 g/ of seeds), 5.0 g in assay [1] (amount of compound 25 g/ of seeds) and 4.5 g in assay [1] (amount of compound 50 g/ of seeds). In addition, the “Mean leaf area of plants” value in assay [2] is recorded as 12.6 mm^2. The “Fresh weight of above-ground part” value came to 0.62 g in assay [3] (spray 10 ppm), 0.72 g in assay [3] (spray 30 ppm), 0.92 g in assay [3] (spray 100 ppm) and 0.94 g in assay [3] (spray 250 ppm). The Damage score in assay [3] (spray 10 ppm) stood at 30; in assay [3] (spray 30 ppm) it was 38; in assay [3] (spray 100 ppm), 81; in assay [3] (spray 250 ppm) it was 68. Besides, in assay [4], the “yield of the seeds calculated presuming 9% seed water content” value is 4.55 tons/hectare.
